Columns and labels:
Type in all cases: in vivo, C57BL/6 mice
[1] = system: chronic kidney injury models by the unilateral ureteral obstruction method; test: Mouse chronic kidney injury model (unilateral ureteral obstruction); conditions: for BUN (urea level in serum) / Scr (creatinine level in serum): 14 days; for BUN (urea level in serum): in mmol/L (unit assumed); for Scr (creatinine level in serum): in µmol/L (unit assumed); for Col1a1 mRNA expression / Havcr1 mRNA expression / Il1 mRNA expression / Il6 mRNA expression / Ngal mRNA expression / Tgfb1 mRNA expression / Tnf mRNA expression / α-Sma mRNA expression: kidney
Source text: Chronic kidney injury: The mice were randomly divided into 7 groups, one of which was randomly selected as the normal group, and the other 6 groups were the model group, the parent drug 1 (0.4 and 4 μmol/kg), the hydrochloride 22 (4 μmol/kg), and the fumarate 23 (0.4 and 4 μmol/kg) groups, respectively, with 6 mice in each group. In addition to mice in the normal group that had sham operations (i.e., there was no other operations, but only the left ureter was exposed), the other mice were established chronic kidney injury models by the unilateral ureteral obstruction method. Specifically, the abdominal skin was sterilized with iodophor and alcohol in sequence, and the abdominal skin was cut and separated layer by layer. After fully exposing and separating the left ureter, double obstruction was performed at the proximal bladder end of the ureter with a digestible suture line, followed by suture. On the first day of model establishment, the parent drug 1 (0.4 and 4 μmol/kg), the hydrochloride 22 (4 μmol/kg) and the fumarate 23 (0.4 and 4 μmol/kg) were administered intragastrically for 14 consecutive days. The mice in the normal group and model group were administered intragastrically the same volume of the solvent 0.5% CMC-Na.
1 h after the last administration, blood was collected from the venous plexus of fundus oculi, stood at room temperature for 2 h, and centrifuged at 3000 rpm for 20 min. The serum was aspirated, aliquoted, and frozen at −70° C. for subsequent use. After blood collection, the mice were sacrificed by cervical dislocation, and the abdominal cavity was opened. The kidneys were taken out, rinsed twice with pre-cooled PBS after the perirenal fats and capsules were peeled off, and then fixed with 4% paraformaldehyde for 24-48 h, embedded in paraffin and stained with HE. The remaining tissues were frozen at −70° C. for subsequent use.
μL serum was taken from each sample for the detection of creatinine and urea levels. Samples were added in accordance with the instructions of the kit strictly. After incubation at 37° C., the absorbance value was measured in a microplate reader, and the content levels of detection indicators in each group were calculated according to the standard curve.
The extraction of total RNA from animal tissues, cDNA synthesis and PCR amplification are as in above examples.

[2] = system: mouse acute lung injury model; test: Mouse acute lung injury model (LPS), ELISA; conditions: title: serum (text b290: lung tissues)
Procedure: In addition to the normal group injected intragastrically with PBS, other mice were injected intraperitoneally with LPS (7.5 mg/kg) to establish acute lung injury models. Three days before model establishment, the parent drug 1 (0.4 and 4 μmol/kg), the hydrochloride 22 (0.4 and 4 μmol/kg), the fumarate 23 (0.4 and 4 μmol/kg) and the positive drug Dex (12 μmol/kg) were administered intragastrically in advance, and LPS (7.5 mg/kg) was injected intraperitoneally half an hour after administration on the third day.
abdominal cavity was opened. The lungs were taken out, and rinsed twice with pre-cooled PBS. […] The remaining tissues were frozen at −70° C. for subsequent use.
20 mg of lung tissues were accurately weighed, rinsed with pre-cooled PBS solution, cut into small pieces by ophthalmic surgical scissors, and put into a glass homogenizer, into which was added 180 μL PBS (containing 1 mM PMSF). The mixture was homogenized at 60 HZ for 180 s, and centrifuged at 3000 rpm/min at 4° C. for 20 min. 1 μL supernatant was taken, the protein concentration of which was measured with Nanodrop and leveled, and could be used for subsequent experiments.

[3] = system: DSS-induced UC model mice; test: Anti-ulcerative colitis activity, DSS mouse colitis model; set-up: key to DAI score: DAI = (weight loss + stool + occult blood scores)/3; conditions: for MPO activity in colon tissue / Colon length: 10 days
Procedure: Except for the normal group, the other mice were free to drink 2.5% DSS for 7 days, which was then replaced to distilled water to be drunk freely for 3 days to establish the UC model. […] The mice in the normal group and model groups were administered intragastrically the same volume of the solvent 0.5% CMC-Na.
The general living conditions of the mice in each group were observed and the disease activity indexs (DAI) were evaluated. The daily specific observation indicator was weight, stool property and occult blood state of mice, and then the scores of the weight loss, stool property and occult blood state were added to determine the average value, so as to obtain the DAI score of each mouse, that is, DAI=(weight loss score+stool property score+occult blood state score)/3, to evaluate the disease activity.
Test method of occult blood: Using o-toluidine method, a little feces was picked up into a 24-well culture plate with a cotton swab, into which was first added 200 μL of the solution of o-toluidine glacial acetic acid, and then quickly added 200 μL of 3% hydrogen peroxide solution. Those turned blue-brown within 2 minutes were positive.
1 h after the last administration, blood was collected from the venous plexus of fundus oculi, stood at room temperature for 2 h, and centrifuged at 3000 rpm for 20 min. The serum was aspirated, aliquoted, and frozen at −70° C. for subsequent use. After the blood collection, the mice were sacrificed by cervical dislocation, and the abdominal cavity was opened. The colon tissues were removed 1 cm away from the anus, rinsed twice with pre-cooled PBS, and frozen at −70° C. for subsequent use.
The shortening of colon length is one of the main characteristics of DSS-induced UC model mice. After dissecting the abdominal cavity of the UC mice, the colon and distal ileum tissues were dissociated. The external morphological changes of the colon tissues were observed, the colon length was measured and recorded, and the photos were taken.
40 mg of colon tissues of the mice in each group was taken, into which was added 400 μL of pre-cooled normal saline to prepare tissue homogenates. After centrifugation at 4° C. and 1200 rpm for 5 min, the supernatants were collected. According to the method described in the kit instructions, various reagents were added sequentially, and finally the absorbance value of each well was determined at the wavelength of 460 nm of the microplate reader to calculate the MPO activity.
MPO activity (U/g wet weight)=(OD value of test tube−OD value of control tube)/11.3×sampling amount(g)

SMILES: CN(C)C[C@@H]1C(=O)O[C@H]2[C@H]1CC[C@@]1(C)C[C@]13CC[C@@](C)(O)[C@H]23 [Compound 22]
- BUN (urea level in serum) ([1]; 4 μmol/kg i.g.): 9.39
- Scr (creatinine level in serum) ([1]; 4 μmol/kg i.g.): 64.50
- Col1a1 mRNA expression ([1]; 4 μmol/kg): 7.30
- Havcr1 mRNA expression ([1]; 4 μmol/kg): 6.29
- Il1 mRNA expression ([1]; 4 μmol/kg): 2.77
- Il6 mRNA expression ([1]; 4 μmol/kg): 3.69
- Ngal mRNA expression ([1]; 4 μmol/kg): 16.14
- Tgfb1 mRNA expression ([1]; 4 μmol/kg): 1.44
- Tnf mRNA expression ([1]; 4 μmol/kg): 5.09
- α-Sma mRNA expression ([1]; 4 μmol/kg): 1.26
- IL-1β ([2]; 0.4 μmol/kg): 1570.02 ± 62.95 pg/mL
- IL-6 ([2]; 0.4 μmol/kg): 2348.32 ± 202.75 pg/mL
- IL-1β ([2]; 4 μmol/kg): 708.74 ± 38.40 pg/mL
- IL-6 ([2]; 4 μmol/kg): 1172.00 ± 240.50 pg/mL

SMILES: CN(C)C[C@@H]1C(=O)O[C@H]2[C@H]1CC[C@@]1(C)C[C@]13CC[C@@](C)(O)[C@H]23 [Compound 23]
- MPO activity in colon tissue ([3]; 20 nmol/kg i.g.): 1.29 ± 0.11 U/g tissue
- Colon length ([3]; 20 nmol/kg/d i.g.): 6.51 ± 0.25 cm
- MPO activity in colon tissue ([3]; 40 nmol/kg i.g.): 0.99 ± 0.18 U/g tissue
- Colon length ([3]; 40 nmol/kg/d i.g.): 7.26 ± 0.26 cm
- DAI score ([3]; day 1, 20 nmol/kg i.g.): 0.00 ± 0.00
- DAI score ([3]; day 1, 40 nmol/kg i.g.): 0.00 ± 0.00
- DAI score ([3]; day 2, 20 nmol/kg i.g.): 0.27 ± 0.09
- DAI score ([3]; day 2, 40 nmol/kg i.g.): 0.16 ± 0.10
- DAI score ([3]; day 3, 20 nmol/kg i.g.): 0.63 ± 0.14
- DAI score ([3]; day 3, 40 nmol/kg i.g.): 0.54 ± 0.11
- DAI score ([3]; day 4, 20 nmol/kg i.g.): 0.96 ± 0.16
- DAI score ([3]; day 4, 40 nmol/kg i.g.): 1.20 ± 0.14
- DAI score ([3]; day 5, 20 nmol/kg i.g.): 1.02 ± 0.23
- DAI score ([3]; day 5, 40 nmol/kg i.g.): 0.61 ± 0.23
- DAI score ([3]; day 6, 20 nmol/kg i.g.): 1.56 ± 0.41
- DAI score ([3]; day 6, 40 nmol/kg i.g.): 1.07 ± 0.25
- DAI score ([3]; day 7, 20 nmol/kg i.g.): 2.28 ± 0.23
- DAI score ([3]; day 7, 40 nmol/kg i.g.): 1.38 ± 0.25
- DAI score ([3]; day 8, 20 nmol/kg i.g.): 2.46 ± 0.26
- DAI score ([3]; day 8, 40 nmol/kg i.g.): 1.57 ± 0.28
- DAI score ([3]; day 9, 20 nmol/kg i.g.): 1.31 ± 0.18
- DAI score ([3]; day 9, 40 nmol/kg i.g.): 1.05 ± 0.25
- DAI score ([3]; day 10, 20 nmol/kg i.g.): 0.80 ± 0.16
- DAI score ([3]; day 10, 40 nmol/kg i.g.): 0.35 ± 0.16
- BUN (urea level in serum) ([1]; 0.4 μmol/kg i.g.): 17.63
- Scr (creatinine level in serum) ([1]; 0.4 μmol/kg i.g.): 157.79
- BUN (urea level in serum) ([1]; 4 μmol/kg i.g.): 9.45
- Scr (creatinine level in serum) ([1]; 4 μmol/kg i.g.): 79.87
- Col1a1 mRNA expression ([1]; 0.4 μmol/kg): 11.79
- Havcr1 mRNA expression ([1]; 0.4 μmol/kg): 11.90
- Il1 mRNA expression ([1]; 0.4 μmol/kg): 5.32
- Il6 mRNA expression ([1]; 0.4 μmol/kg): 14.31
- Ngal mRNA expression ([1]; 0.4 μmol/kg): 35.77
- Tgfb1 mRNA expression ([1]; 0.4 μmol/kg): 1.76
- Tnf mRNA expression ([1]; 0.4 μmol/kg): 7.10
- α-Sma mRNA expression ([1]; 0.4 μmol/kg): 2.02
- Col1a1 mRNA expression ([1]; 4 μmol/kg): 8.27
- Havcr1 mRNA expression ([1]; 4 μmol/kg): 7.25
- Il1 mRNA expression ([1]; 4 μmol/kg): 3.55
- Il6 mRNA expression ([1]; 4 μmol/kg): 5.61
- Ngal mRNA expression ([1]; 4 μmol/kg): 19.42
- Tgfb1 mRNA expression ([1]; 4 μmol/kg): 1.53
- Tnf mRNA expression ([1]; 4 μmol/kg): 7.53
- α-Sma mRNA expression ([1]; 4 μmol/kg): 1.39
- IL-1β ([2]; 0.4 μmol/kg): 1623.55 ± 32.64 pg/mL
- IL-6 ([2]; 0.4 μmol/kg): 2585.26 ± 273.50 pg/mL
- IL-1β ([2]; 4 μmol/kg): 888.28 ± 35.20 pg/mL
- IL-6 ([2]; 4 μmol/kg): 1288.32 ± 123.80 pg/mL
